Measurements: the supplement of paper PMC10307832

Experiments:
Assay in all cases: relative viability (nuclei count vs DMSO), 5 days (fraction); higher = more cells survive
[1] = compound: Cc1ccc2nc(NCCN)c3ncc(C)n3c2c1 + CCNC(=O)c1noc(-c2cc(C(C)C)c(O)cc2O)c1-c1ccc(CN2CCOCC2)cc1 [Luminespib] (partner 0.01 µM)
Procedure, shortened: (§1)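 Lung cancer cell lines, seeded in 1536-well plates, were treated the following day by pin tool with a single drug or with five library-drug doses (not always all listed) in √10 steps on top of a fixed anchor-drug dose. Cells were fixed and nuclei stained in one step after 5 days, and nuclei were counted. Relative viability is the nuclei count for treated wells divided by that for vehicle wells, reported as medians of duplicate plates.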

[2] = compound: Cc1ccc2nc(NCCN)c3ncc(C)n3c2c1 + N=C(N)NC(=N)NCCc1ccccc1 [Phenformin] (partner 250 µM)
Procedure, shortened: as §1

[3] = compound: Cc1ccc2nc(NCCN)c3ncc(C)n3c2c1 + Nc1ncn([C@H]2C[C@H](O)[C@@H](CO)O2)c(=O)n1 [Decitabine] (partner 2 µM)
Procedure, shortened: as §1

Salubrinal + Linsitinib = compound: O=C(/C=C/c1ccccc1)NC(NC(=S)Nc1cccc2cccnc12)C(Cl)(Cl)Cl [Salubrinal] + C[C@]1(O)C[C@@H](c2nc(-c3ccc4ccc(-c5ccccc5)nc4c3)c3c(N)nccn32)C1 [Linsitinib] (partner 1 µM)
Procedure, shortened: as §1

| Cell Line | relative viability ([1]; first compound 0.04 µM) | relative viability ([1]; first compound 0.1265 µM) | relative viability ([1]; first compound 0.4 µM) | relative viability ([1]; first compound 1.265 µM) | relative viability ([1]; first compound 4 µM) | relative viability ([2]; first compound 0.04 µM) | relative viability ([2]; first compound 0.1265 µM) | relative viability ([2]; first compound 0.4 µM) | relative viability ([2]; first compound 1.265 µM) | relative viability ([2]; first compound 4 µM) | relative viability ([3]; first compound 0.04 µM) | relative viability ([3]; first compound 0.1265 µM) | relative viability ([3]; first compound 0.4 µM) | relative viability ([3]; first compound 1.265 µM) | relative viability ([3]; first compound 4 µM) | relative viability (Salubrinal + Linsitinib; first compound 0.08 µM) | relative viability (Salubrinal + Linsitinib; first compound 0.253 µM) | relative viability (Salubrinal + Linsitinib; first compound 0.8 µM) | relative viability (Salubrinal + Linsitinib; first compound 2.53 µM) | relative viability (Salubrinal + Linsitinib; first compound 8 µM) |
| --- | --- | --- | --- | --- | --- | --- | --- | --- | --- | --- | --- | --- | --- | --- | --- | --- | --- | --- | --- | --- |
| 201T | 1.1 | 1.05 | 1.06 | 1.12 | 1.07 | 0.46 | 0.417 | 0.452 | 0.465 | 0.453 | 0.838 | 0.818 | 0.862 | 0.901 | 0.839 | 1.04 | 0.982 | 1.09 | 1.07 | 0.97 |
| A549 | – | – | – | – | – | 0.209 | 0.199 | 0.166 | 0.111 | 0.118 | 0.281 | 0.238 | 0.207 | 0.299 | 0.219 | 0.709 | 0.568 | 0.669 | 0.558 | 0.54 |
| A-427 | 1.1 | 0.784 | 0.993 | 1.02 | 0.846 | 0.388 | 0.308 | 0.35 | 0.265 | 0.296 | 0.557 | 0.561 | 0.547 | 0.58 | 0.539 | 1.12 | 1.2 | 1.1 | 1.08 | 1.22 |
| ABC-1 | 0.507 | 0.719 | – | 0.52 | 0.41 | 0.236 | 0.27 | 0.297 | 0.248 | 0.226 | 1.14 | 1.32 | 1.12 | 0.87 | 1.3 | 0.802 | 0.753 | 0.76 | 0.952 | 0.781 |
| BEN | 0.337 | 0.295 | 0.425 | 0.179 | 0.688 | 0.288 | 0.265 | 0.293 | 0.247 | 0.296 | 0.623 | 0.737 | 0.686 | 0.885 | 0.685 | 1.15 | 0.624 | 1.23 | 0.931 | 0.892 |
| CAL-12T | 0.642 | 0.522 | 0.715 | 0.534 | 0.214 | 0.567 | 0.491 | 0.536 | 0.59 | 0.542 | – | – | – | – | – | 0.754 | 0.883 | 0.971 | 0.806 | 0.726 |
| Calu-6 | – | – | – | – | – | – | – | – | – | – | – | – | – | – | – | 0.983 | 0.842 | 1.08 | 0.928 | 0.992 |
| ChaGo-K-1 | 0.7 | 0.565 | 0.608 | 0.517 | 0.643 | 0.534 | 0.544 | 0.485 | 0.412 | 0.435 | 0.542 | 0.546 | 0.511 | 0.545 | 0.512 | – | – | – | – | – |
| EBC-1 | – | – | – | – | – | – | – | – | – | – | – | – | – | – | – | 0.767 | 0.844 | 1.03 | 0.873 | 0.897 |
| HCC-78 | – | – | – | – | – | 0.81 | 0.694 | 0.71 | 0.697 | 0.601 | 0.745 | 0.711 | 0.735 | 0.664 | 0.617 | 0.59 | 0.558 | 0.796 | 0.481 | 0.508 |
| HCC-366 | – | – | – | – | – | 0.588 | 0.609 | 0.638 | 0.606 | 0.537 | 0.349 | 0.362 | 0.302 | 0.357 | 0.34 | 1.01 | 0.408 | 0.883 | 0.671 | 0.57 |
| IA-LM | – | – | – | – | – | – | – | – | – | – | – | – | – | – | – | 0.256 | 0.472 | 0.704 | 0.519 | 1.09 |
| NCI-H522 | 1.26 | 1.12 | 1.04 | 1.14 | 1.17 | 0.695 | 0.708 | 0.622 | 0.689 | 0.543 | 0.573 | 0.795 | 0.765 | 0.62 | 0.675 | – | – | – | – | – |
| NCI-H1299 | – | – | – | – | – | – | – | – | – | – | – | – | – | – | – | 0.964 | 0.876 | 1.09 | 1 | 0.96 |
| NCI-H1563 | 0.491 | 0.509 | 0.517 | 0.466 | 0.485 | 0.652 | 0.684 | 0.662 | 0.65 | 0.654 | – | – | – | – | – | 1.1 | 1.26 | 1.14 | 1.21 | 1.12 |
| NCI-H1648 | – | – | – | – | – | – | – | – | – | – | 0.521 | 0.5 | 0.568 | 0.528 | 0.431 | – | – | – | – | – |
| NCI-H1650 | 0.242 | 0.213 | 0.195 | 0.214 | 0.212 | 0.442 | 0.488 | 0.455 | 0.414 | 0.464 | 0.365 | 0.392 | 0.374 | 0.393 | 0.38 | – | – | – | – | – |
| NCI-H1703 | – | – | – | – | – | – | – | – | – | – | – | – | – | – | – | 0.515 | 0.997 | 0.712 | 0.685 | 0.644 |
| NCI-H2170 | 0.637 | 0.699 | 0.516 | 0.855 | 0.64 | 0.402 | 0.408 | 0.435 | 0.424 | 0.446 | 0.473 | 0.442 | 0.433 | 0.448 | 0.461 | – | – | – | – | – |
| NCI-H2228 | 0.147 | 0.149 | 0.181 | 0.145 | 0.149 | 0.29 | 0.525 | 0.452 | 0.284 | 0.244 | – | – | – | – | – | 0.768 | 0.813 | 0.791 | 0.581 | 0.629 |
| NCI-H2342 | 0.797 | 0.638 | 0.616 | 0.719 | 0.677 | 0.592 | 0.816 | 0.636 | 0.581 | 0.559 | 0.688 | 0.73 | 0.799 | 0.737 | 0.72 | – | – | – | – | – |
| SW 900 | 0.168 | 0.161 | – | 0.149 | 0.167 | 0.594 | 0.6 | – | 0.674 | 0.849 | – | 0.43 | 0.448 | 0.354 | 0.458 | – | – | – | – | – |
